Literature values, collected in article PMC11259557 (Cancer Medicine, 2024).
Like-named read-outs stand apart in the source and are kept apart here.

What was measured:
[1] = parameters: method as in PMID 26337806, PMID 27196567

SMILES: CC(C)C[C@H](NC(=O)[C@H](CCc1ccccc1)NC(=O)CN1CCOCC1)C(=O)N[C@@H](Cc1ccccc1)C(=O)N[C@@H](CC(C)C)C(=O)[C@@]1(C)CO1 [carfilzomib]
- DCR (multiple myeloma; phase I trial): 39%

SMILES: CC(C)C[C@H](NC(=O)[C@@H](NC(=O)c1cccc(-c2ccccc2)n1)[C@@H](C)O)B(O)O [delanzomib]
- incidence of grade ≥3 diarrhea: 19%
- incidence of peripheral neuropathy: 21%

SMILES: CC(C)C[C@H](NC(=O)CNC(=O)c1cc(Cl)ccc1Cl)B(O)O [ixazomib]
- DCR (multiple myeloma; monotherapy): 50%
- incidence of decreased platelet counts: 43%
- peripheral neuropathy, any grade (patients): 27%
- peripheral neuropathy, grade 3 (patients): 2%
- incidence of diarrhea (phase 1 study in RRMM): 38%
- incidence of grade ≥3 diarrhea (phase 1 study in RRMM): 17%
- incidence of peripheral neuropathy (phase 1 study in RRMM): 20%
- rate of grade ≥3 AEs (phase 1 study in RRMM): 53%
- incidence of diarrhea (real-world settings): 26.2%
- incidence of peripheral neuropathy (real-world settings): 35%
- incidence of ≥grade 3 diarrhea (real-world settings): 13.9%
- incidence of ≥grade 3 peripheral neuropathy (real-world settings): 3%
- participants who discontinued due to AEs (study by Kumar et al.): 12%
- T max [1]: 1 to 1.5 h
- half-life [1]: 140 to 150 h

SMILES: COC[C@H](NC(=O)c1cnc(C)s1)C(=O)N[C@@H](COC)C(=O)N[C@@H](Cc1ccccc1)C(=O)[C@@]1(C)CO1 [oprozomib]
- patients who experience diarrhea: Nearly all patients
